The test system of one test is LdBDF5. Also on record: method as in PMID 37906637. The settings on record: different affinities for first or second BD; cited from earlier work.
The test system of another test is Dm28c epimastigotes. The settings on record: cited from earlier work.
For the next test, the system named is TcBDF2. More on the design: method as in PMID 27007774, PMID 35482332. The settings on record: cited from earlier work.
The next test has as its system TcBDF3. Also on record: method as in PMID 27007774, PMID 35482332. To be noted: cited from earlier work.
Test [1] relates to T. cruzi Dm28c epimastigotes expressing beta-galactosidase. The experiment in a line: Beta-galactosidase expressing parasite assay (epimastigotes). The format is cell-based. To be noted: Trypanosoma cruzi, 72 h. How it is done: T. cruzi Dm28c which expresses the Escherichia coli LacZ gene was used ([31][–][33]). Epimastigotes were incubated with the compounds (50, 25, 12.5, 6.25, and 3.125 µM). After 72 hours of treatment, the assays were developed by the addition of Chlorophenol red-β-D-galactopyranoside (100 µM final concentration) and Nonidet P-40 (0.1% final concentration). Plates were incubated for 2 to 4 hours at 37°C. Wells with β-galactosidase activity turned the media from yellow to red, and this was quantitated by absorbance at 595 nm using a Synergy HTX multi-detection microplate reader as reported previously ([31]). Normalized survival percentage was plotted against concentrations on Prism 9.0 GraphPad software. DMSO 50% was used as the 0% survival baseline. Each concentration was assayed in triplicates.
Fig 4 Trypanocidal effect on epimastigotes expressing beta-galactosidase. Epimastigotes were incubated for 72 hours with each compound (named 1 to 6 and indicated on top of each graph) at five concentrations (3.12 to 50 µM). Beta-galactosidase activity was measured, and normalized survival was plotted vs. log concentration. For IC50 calculation of iBET151 and Benznidazole (BZN) (used as positive controls), six concentrations (from 1.56 to 100 µM) were plotted and the curves were fitted using GraphPad Prism 9.0 [non-linear regression: log(inhibitor) vs. response -- Variable slope (four parameters)]. […]

The target of a further test is recombinant TcBD2 (Trypanosoma cruzi, UniProt A0A2V2V5V1). Briefly: Thermal shift / differential scanning fluorimetry (DSF). It is filed as binding. How it is done: Recombinant TcBD2 was buffered in 10 mM HEPES, pH 7.5, and 300 mM NaCl and assayed in a 96-well plate at a final concentration of 5 µM in a 25-µL volume. Compounds were added at a final concentration between 0.1 and 50 µM to calculate dissociation constants. SYPRO Orange was added as a fluorescence probe at a dilution of 1:10,000. Excitation and emission filters for the SYPRO Orange dye were set to 465 and 590 nm, respectively. The temperature was raised with a step of 2°C per minute from 25°C to 96°C, and fluorescence readings were taken at each interval in a real-time Bio-Rad Opus CFX. Data were analyzed as previously described ([22]).
Chain of recombinant TcBD2 (A0A2V2V5V1 entry or part of it): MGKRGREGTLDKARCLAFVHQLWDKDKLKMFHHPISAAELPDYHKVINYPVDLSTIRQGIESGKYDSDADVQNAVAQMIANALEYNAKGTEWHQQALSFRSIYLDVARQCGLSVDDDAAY
Fig 3 Kd calculation using DSF. Six concentrations of each compound (compounds named 1 to 7 indicated on top of each graph) were used (from 0.1 to 50 µM), and the melting temperatures of TcBD2 with each concentration of compound obtained were used to calculate the Kds. DMSO was used as a control sample. All thermal shift assays were performed at least in triplicate with reproducibility of parameters within ±10%. The change of melting temperature versus the log of the ligand concentration was plotted and fitted as described in the Materials and Methods section.
(In general: DSF heats the sample and reads unfolding from a dye or from intrinsic fluorescence.)

A further test relates to first BD from TbBDF5. Also on record: method as in PMID 29025975. To be noted: cited from earlier work.
A further test concerns procyclic T. brucei. More on the design: method as in PMID 29025975. To be noted: growth of procyclic T. brucei; cited from earlier work.
Test [2] has as its system TbBDF3. Also on record: method as in PMID 29025975. The settings on record: cited from earlier work.
The target in a further test is second BD of TbBDF5. More on the design: method as in PMID 29025975. To be noted: ITC; cited from earlier work. (Isothermal titration calorimetry measures the heat released or taken up as one component is titrated into another.)
The target in a further test is BD of TbBDF2. Also on record: method as in PMID 29025975. To be noted: ITC; cited from earlier work.
A further test concerns TbBDF2. More on the design: method as in PMID 26646171, PMID 35642518. To be noted: cited from earlier work.
Test [3] relates to TbBDF3. More on the design: method as in PMID 26646171, PMID 35642518. The settings on record: cited from earlier work.
Test [4] deals with Toxoplasma tachyzoites infecting HFF cells. Also on record: method as in PMID 32119930. The settings on record: cited from earlier work.
Test [5] relates to promastigotes from L. donovani. Also on record: method as in PMID 37906637. The settings on record: cited from earlier work.
In a further test the target is LdBD5.1. More on the design: method as in PMID 37906637. To be noted: cited from earlier work.
The test system of test [6] is asexual form of Plasmodium falciparum. Also on record: method as in PMID 29631126. The settings on record: cited from earlier work.
Test [7] has as its system promastigotes from Leishmania mexicana. Also on record: method as in PMID 37906637. The settings on record: cited from earlier work.
Setting [8] is: second round of experiments, six concentrations, read-out: IC50 (Figure S3, Kd calculation using DSF, second round of experiments).
Setting [9] is: thermal shift, compounds 0.1 to 50 µM, 5 µM TcBD2, read-out: Kd ± SD.
Setting [10] is: read-out: IC50 against Dm28c epimastigotes.

Like-named read-outs stand apart in the source and are kept apart here.

For orientation: IC50 means the concentration at which inhibition is half-maximal. Turning to `CCOC(=O)Nc1cc(-c2ccc(C)c(NS(C)(=O)=O)c2)nn2c(C)nnc12` [BSP, Bromosporine], the “binding to LdBDF5” value in the test on LdBDF5 is listed as “binds”. In addition, in the test on Dm28c epimastigotes (read-out: IC50 against parasites), the 50% inhibitory concentration (IC50) was more than 50 µM. Moreover, the “binding to TcBDF2” value in the test with TcBDF2 is recorded as “bind”. Also, in the test on TcBDF3, the “binding to TcBDF3” value is “bind”.

`O=C(Cn1ccnc1[N+](=O)[O-])NCc1ccccc1` [BZN, Benznidazole]: the IC50 in test [1] was 19.8 µM.

For orientation: Kd means a measure of binding affinity in units of concentration. Turning to `CCn1nnc2c(N3CC[C@@H](N)C3)nc(C)nc21` [Compound 1], the values for the Kd on recombinant TcBD2 (setting [8]) and at recombinant TcBD2 (setting [9]) were 1.89 µM and 1.91 ± 0.31 µM, respectively.

As for `CCn1nnc2c(N3CC[C@H](N)C3)nc(C)nc21` [Compound 2], the Kd is 1.55 µM on recombinant TcBD2 (setting [8]) and 1.33 ± 0.22 µM at recombinant TcBD2 (setting [9]).

In the case of `Cc1cc(C(=O)NC2CCc3nccn3C2)c2c(C)noc2n1` (stereo not shown) [Compound 3], the results for the Kd on recombinant TcBD2 (setting [8]) and on recombinant TcBD2 (setting [9]) were 2.14 µM and 2.41 ± 0.32 µM, respectively.

For the compound `Cc1cc2c(NC(=O)CC(C)(C)CC(=O)O)cccc2nn1` [Compound 4], the dissociation constant Kd on recombinant TcBD2 (setting [8]) was 1.92 µM; at recombinant TcBD2 (setting [9]), 1.58 ± 0.42 µM.

Consider `Cc1cc2c(NS(=O)(=O)c3c(C)noc3C)cccc2nn1` [Compound 5], for which the Kd on recombinant TcBD2 (setting [8]) was 3.36 µM; on recombinant TcBD2 (setting [9]), 3.52 ± 0.12 µM.

As to `Cc1cc2c(NC(=O)c3ccccc3C(=O)O)cccc2nn1` [Compound 6], the figures for the Kd at recombinant TcBD2 (setting [8]) and at recombinant TcBD2 (setting [9]) were 3.11 µM and 3.31 ± 0.26 µM, respectively.

On to `CC(=O)Nc1nc(C)c(S(=O)(=O)Nc2cccc3nnc(C)cc23)s1` [Compound 7], for which the Kd was 3.15 µM at recombinant TcBD2 (setting [8]) and 2.81 ± 0.31 µM at recombinant TcBD2 (setting [9]).

For `CCCOc1ccn2c(C(C)=O)cc(-c3ccccc3S(C)(=O)=O)c2c1` [GSK2801], the “binding to first BD from TbBDF5” value in the test on first BD from TbBDF5 is listed as “does not bind”. The IC50 with procyclic T. brucei is 1.37 µM. In addition, the “binding to TbBDF3” value in the test on TbBDF3 [2] is “does not bind”. For the same compound, the figures for the Kd on second BD of TbBDF5 and at BD of TbBDF2 were 83 µM and 15 µM, respectively.

In the case of `CCn1cc(-c2cccc(C(F)(F)F)c2)c2sc(C(=N)NC3CCS(=O)(=O)CC3)cc2c1=O` [I-BRD9], the “binding to LdBDF5” value in the test with LdBDF5 is “binds”.

With `Cc1sc2c(c1C)C(c1ccc(Cl)cc1)=N[C@@H](CC(=O)OC(C)(C)C)c1nnc(C)n1-2` [JQ1(+)], the IC50 in the test on Dm28c epimastigotes (setting [10]) was 7.14 µM. In addition, in the test on TbBDF2, the “binding to TbBDF2” value is listed as “do not bind at all”. The “binding to TcBDF2” value in the test on TcBDF2 was “does not interact”. For the same compound, the “binding to TbBDF3” value in the test with TbBDF3 [3] is given as “do not bind at all”. Also, the “binding to TcBDF3” value in the test on TcBDF3 is “binds”.

Consider `Cc1nnc2c3ccccc3c(N[C@@H](C)[C@H](c3ccccc3)N(C)C)nn12` [L-Moses], for which the IC50 in [4] was approximately 0.6 µM.

On to `COc1ccc(CCc2nc3cc(-c4c(C)noc4C)ccc3n2C[C@H](C)N2CCOCC2)cc1Cl` [SGC-CBP30], for which, in the test with LdBDF5, the “binding to LdBDF5” value is listed as “binds”. Moreover, the IC50 in test [5] was 6.16 µM; in test [6] (in vitro) it was 3.2 µM; in [7] it was 7.16 µM. In addition, the Kd at LdBD5.1 is 0.281 µM. In addition, the selectivity index entry in [6] (calculated using a human HEK 293 cell line) is “around 7”.

For `COc1cc2c(cc1-c1c(C)noc1C)ncc1[nH]c(=O)n([C@H](C)c3ccccn3)c12` [iBET-151], the IC50 in the test with Dm28c epimastigotes (setting [10]) is 6.35 µM; in test [1], 7.75 µM. Further, the Kd on TbBDF2 is 225 µM; at TbBDF3 [3] it was 175 µM. In addition, in the test on TcBDF2, the “binding to TcBDF2” value is listed as “bind”. Besides, the “binding to TcBDF3” value in the test with TcBDF3 is given as “bind”.

The record behind these values is paper PMC11304739, “Identification of novel bromodomain inhibitors of Trypanosoma cruzi bromodomain factor 2 (TcBDF2) using a fluorescence polarization-based high-throughput assay” (Antimicrobial Agents and Chemotherapy, 2024).
